This test concerns Mus musculus. Description: Antiinflammatory activity in CD1 mouse assessed as inhibition of croton oil-induced ear oedema at 0.3 umol/cm^2 after 6 hrs. The class given is functional. The arrangement: scale not given: the % may be the effect or the level left.

`COc1cc(/C=C/C(=O)O)ccc1OC/C=C(\C)CCC=C(C)C`: the Activity was found to be 41%.

As for `O=c1ccc2ccc(O)cc2o1` [UMBELLIFERONE], the Activity turned out to be 23%.

As to `COc1cc(/C=C/C(=O)OC2=CC(=O)c3ccccc3C2=O)ccc1OC/C=C(\C)CCC=C(C)C`, the Activity worked out at 43%.

`COc1cc(/C=C/C(=O)Oc2ccc(NC(C)=O)cc2)ccc1OC/C=C(\C)CCC=C(C)C`: the Activity is 51%.

Take `O=C1C=C(O)C(=O)c2ccccc21` [LAWSONE]: the Activity came out at 23%.

With `O=C1C[C@@H](c2ccc(O)cc2)Oc2cc(O)cc(O)c21` [NARINGENIN], the Activity was found to be 43%.

Consider `O=C(O)c1ccccc1O` [SALICYLIC ACID], for which the Activity is recorded as 13%.

For `COc1cc(/C=C/C(=O)Oc2ccccc2OC)ccc1OC/C=C(\C)CCC=C(C)C`, the Activity is 49%.

As to `COC(=O)c1ccc(OC(=O)/C=C/c2ccc(OC/C=C(\C)CCC=C(C)C)c(OC)c2)c(OC)c1`, the Activity is 29%.

For `COC(=O)/C=C/c1ccc(OC(=O)/C=C/c2ccc(OC/C=C(\C)CCC=C(C)C)c(OC)c2)c(OC(=O)/C=C/c2ccc(OC/C=C(\C)CCC=C(C)C)c(OC)c2)c1`, the Activity was 38%.

For `CC(=O)Nc1ccc(O)cc1` [ACETAMINOPHEN], the Activity came to 13%.

Consider `Oc1ccc(O)cc1` [HYDROQUINONE], for which the Activity is recorded as 4%.

As to `COC(=O)/C=C/c1ccc(OC(=O)/C=C/c2ccc(OC/C=C(\C)CCC=C(C)C)c(OC)c2)c(OC)c1`, the Activity worked out at 43%.

As to `O=C(O)/C=C/c1ccc(O)c(O)c1` [CAFFEIC ACID], the Activity worked out at 6%.

As for `COc1cc(/C=C/C(=O)Oc2ccc(OC(=O)/C=C/c3ccc(OC/C=C(\C)CCC=C(C)C)c(OC)c3)cc2)ccc1OC/C=C(\C)CCC=C(C)C`, the Activity is 57%.

As to `COc1ccccc1O` [GUAIACOL], the Activity was found to be 10%.

On to `O=C1c2ccc(O)cc2C(=O)c2ccc(O)cc21` [ANTHRAFLAVICACID], for which the Activity is reported as 22%.

For `COc1cc(/C=C/C(=O)Oc2ccc3c(c2)C(=O)c2ccc(OC(=O)/C=C/c4ccc(OC/C=C(\C)CCC=C(C)C)c(OC)c4)cc2C3=O)ccc1OC/C=C(\C)CCC=C(C)C`, the Activity was 43%.

As for `COc1cc(C(=O)O)ccc1O` [VANILLIC ACID], the Activity stood at 20%.

Take `COc1cc(/C=C/C(=O)Oc2ccc3ccc(=O)oc3c2)ccc1OC/C=C(\C)CCC=C(C)C`: the Activity was 38%.

Turning to `COC(=O)c1ccccc1OC(=O)/C=C/c1ccc(OC/C=C(\C)CCC=C(C)C)c(OC)c1`, the Activity came out at 42%.

Consider `COc1cc(/C=C/C(=O)O)ccc1O` [FERULATE], for which the Activity is 16%.

With `COc1ccc2c(c1)c(CC(=O)O)c(C)n2C(=O)c1ccc(Cl)cc1` [INDOMETHACIN], the Activity turned out to be 62%.

(Values after ChEMBL document CHEMBL1139817, “Synthesis and anti-inflammatory activity of 3-(4'-geranyloxy-3'-methoxyphenyl)-2-trans propenoic acid and its ester derivatives” (2007).)
